Experimental findings from PubChem BioAssay (NCI) are described below.

“And” between values parts separate entries of the source, which are not always exact repeats. Identical values can stand only once.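 In this assay, cells in 96-well plates receive the compound at five concentrations for 48 hours. Endpoints are linearly interpolated between the surrounding concentrations. GI50: concentration for 50% inhibition of growth. The concentration for full growth arrest is given as TGI.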

Holding throughout (assay): NCI anticancer screen, dose series, 48 h
Assay [1] concerns LOX IMVI melanoma.
Assay [2] deals with UACC-257 melanoma.
The test system of assay [3] is RPMI-8226 leukemia.
Assay [4] concerns RXF 393 renal.
For assay [5], the system named is A549 NSCLC.
The test system of assay [6] is EKVX NSCLC.

`Oc1ccc(Br)cc1C=Nc1ccc(N=Cc2cc(Br)ccc2O)cc1`: the TGI in assay [1], in assay [2], in assay [3], in assay [4], in assay [5] and in assay [6] was > 100 µM throughout.
For the compound `COC(=O)/C(=C\c1ccc(N(CCC#N)CCC#N)cc1)NC(=O)c1cc([N+](=O)[O-])ccc1Cl`, the TGI in assay [1], in assay [2], in assay [3], in assay [4], in assay [5] and in assay [6] was > 100 µM in each case.
For the compound `O=c1c2ccccc2nc(-c2ccccc2)n1NC(=S)Nc1ccccc1`, the TGI in assay [1], in assay [2], in assay [3], in assay [4] and in assay [5] was > 100 µM in each case.
With `OCCNCCOc1ccc(/C(=C(/Cl)c2ccccc2)c2ccccc2)cc1`, the TGI stood at 16.6 µM in assay [1]; 12 µM in assay [2]; 17.3 µM in assay [3]; 14.7 µM in assay [4]; 12.8 µM in assay [5]; 28.6 µM in assay [6].
As for `CCOc1ccccc1NC(=O)C(=O)Cc1nc2ccccc2s1`, the TGI in assay [2], in assay [4], in assay [5] and in assay [6] was > 100 µM throughout.
Turning to `COC1=C(Br)C(=O)c2nc(C)ccc2C1=O`, the TGI in assay [1] is 24.3 µM; in assay [2], 26.6 µM; in assay [3] it was > 22.6 µM; in assay [4], 24.5 µM; in assay [5], 38.5 µM; in assay [6] it was 33.4 µM.
In the case of `[F][Sn]([F])([c]1ccccc1)[c]1ccccc1`, the GI50 is 1.7 µM in assay [1]; 1.56 µM in assay [2]; 1.11 µM in assay [3]; 0.887 µM in assay [4]; 2.33 µM in assay [5]; 1.83 µM in assay [6]. Also, the TGI in assay [1] was found to be 3.29 µM; in assay [2], 3.2 µM; in assay [3], 3.79 µM; in assay [4] it was 2.64 µM; in assay [5] it was 6.45 µM; in assay [6], 3.96 µM.
Regarding `O=S1(=O)OCCOS(=O)(=O)C1Cl`, the TGI in assay [2], in assay [3], in assay [5] and in assay [6] was > 100 µM in each case.
As to `CC1CN1c1c(C(=O)/C=C/c2ccc(Cl)cc2)c(-c2ccccc2)nn(C)c1=O` (stereo not given), the TGI was 4.17 µM in assay [1]; > 10 µM in assay [2]; 8.4 µM in assay [4]; > 10 µM in assay [5]; > 10 µM in assay [6].
Turning to `CC(=O)OC1C2CCC1C1C2C2(Cl)C(Cl)=C(Cl)C1(Cl)C2(Cl)Cl` (stereo not given), the TGI was 29.1 µM in assay [1]; 27.4 µM in assay [2]; 27.4 µM in assay [3]; 29.3 µM in assay [4]; 25.9 µM in assay [5]; 24.1 µM in assay [6].
With `CC(C)(C)OC(=O)N1N=NC2C1C1CC(OCc3ccccc3)(OCc3ccccc3)C2O1` (stereo not given), the TGI was 33.7 µM in assay [1]; 63.7 µM in assay [2]; 63.6 µM in assay [3]; > 100 µM in assay [4]; > 100 µM in assay [5].
As to `N.N.NCCCCCCCCCN.O=C([O-])CC(=O)[O-].O=C([O-])CC(=O)[O-].[Pt+4].[Pt+4]`, the GI50 in assay [1], in assay [2], in assay [3], in assay [4], in assay [5] and in assay [6] was > 100 µM throughout. The TGI in assay [1], in assay [2], in assay [3], in assay [4], in assay [5] and in assay [6] was > 100 µM in each case.
For `OCC(O)CNc1ccnc2cc(Cl)ccc12` (stereo not given), the TGI in assay [1], in assay [2], in assay [3], in assay [4], in assay [5] and in assay [6] was > 100 µM throughout.
As for `COC(=O)c1cccc2cccc(C(=O)Nc3ccc(Cl)cc3)c12`, the TGI is > 100 µM in assay [1]; > 100 µM in assay [2]; 33.7 µM in assay [3]; > 100 µM in assay [4]; > 100 µM in assay [5]; > 100 µM in assay [6].
As for `CCCCc1c2c(nc3c1CCC/C3=C\c1ccccc1)/C(=C/c1ccccc1)CCC2`, the TGI in assay [1], in assay [2], in assay [3], in assay [5] and in assay [6] was > 100 µM in each case.
As to `N#CC(C(=O)CCC(=O)Nc1cccc(C(F)(F)F)c1)c1ccc(Cl)cc1` (stereo not given), the TGI in assay [1], in assay [2], in assay [3], in assay [5] and in assay [6] was > 100 µM each time.
As for `CC1=C(c2cc(C(=O)Nc3ccc(Cl)cc3)nc(=S)[nH]2)Sc2ccccc2N1`, the TGI in assay [1], in assay [2], in assay [4], in assay [5] and in assay [6] was > 100 µM each time.
For `Cc1cccc(C(C)C)c1NC(=O)C(=O)C(C(=O)c1ccccc1F)C1OC(=O)c2ccccc21` (stereo not given), the TGI in assay [1] was 32.7 µM; in assay [2] it was 29.4 µM; in assay [3], 28.5 µM; in assay [4], 27.5 µM; in assay [5], > 100 µM; in assay [6], 96.6 µM.
Consider `CC(C(=O)n1c2ccccc2c2ccccc21)N(c1ccccc1)c1ccccc1` (stereo not given), for which the TGI is 30.6 µM in assay [1]; 32.3 µM in assay [2]; 36.2 µM in assay [3]; 28.4 µM in assay [4]; 38.5 µM in assay [5]; 38.8 µM in assay [6].
On to `Cc1cccc(C)c1NC(=O)C(=O)CC(=O)c1cccc([N+](=O)[O-])c1`, for which the TGI in assay [2], in assay [3], in assay [5] and in assay [6] was > 100 µM each time.
`O=C(O)CSc1n[nH]c(Cc2ccccc2)n1`: the TGI in assay [1], in assay [2], in assay [3], in assay [4], in assay [5] and in assay [6] was > 100 µM in each case.
Turning to `c1ccc(CSc2nc3ccccc3nc2-c2cccs2)cc1`, the TGI in assay [2], in assay [3], in assay [5] and in assay [6] was > 100 µM in each case.
Turning to `O=C(O)CN(c1ccccc1)S(=O)(=O)c1ccc([N+](=O)[O-])cc1`, the TGI in assay [1], in assay [2], in assay [3], in assay [4], in assay [5] and in assay [6] was > 100 µM each time.
With `Cc1cc(C(C)(C)C)cc(Cc2cc(C(C)(C)C)cc(Cc3cc(C(C)(C)C)cc(C)c3O)c2O)c1O`, the TGI in assay [1] came out at 21 µM; in assay [2] it was 20.8 µM; in assay [3] it was 6.44 µM; in assay [4], 6.26 µM; in assay [5], 18.7 µM; in assay [6], 22.9 µM.
`COc1cc(C2C(C(=O)Nc3cc(F)c(F)cc3F)=C(C)NC(C)=C2C(=O)Nc2cc(F)c(F)cc2F)ccc1O`: the TGI in assay [1] was found to be 32.9 µM; in assay [2] it was 54.8 µM; in assay [3] it was 47.3 µM; in assay [4] it was 52.2 µM; in assay [5], 95.8 µM; in assay [6], 73.9 µM.
In the case of `CC(=O)OCCOCNC(=S)N/N=C/c1ccc(Br)s1`, the TGI in assay [1], in assay [2], in assay [3], in assay [4], in assay [5] and in assay [6] was > 100 µM throughout.
Take `CCOC(=O)/C(=C/c1cccc(C#N)c1)N(CC)CC`: the TGI in assay [1], in assay [2], in assay [3], in assay [5] and in assay [6] was > 100 µM in each case.
Regarding `CC1=C(C(=O)NNS(=O)(=O)c2ccc(C)cc2)CC(C(=O)NNS(=O)(=O)c2ccc(C)cc2)=C(C)N1`, the TGI in assay [1], in assay [2], in assay [3], in assay [4], in assay [5] and in assay [6] was > 100 µM throughout.
With `O=c1nc(-c2ccccc2)cc(-c2ccccc2O)[nH]1`, the TGI in assay [1], in assay [2], in assay [3], in assay [4], in assay [5] and in assay [6] was > 100 µM each time.
On to `CCOc1ccccc1NC(=O)C(C#N)C1=C(Cl)C(=O)c2ccccc2C1=O` (stereo not given), for which the GI50 in assay [1] is 1.38 µM; in assay [2] it was 2.22 µM; in assay [3], 3.34 µM; in assay [6], 2.86 µM. Also, the TGI was 2.08 µM and 3.28 µM in assay [1]; 2.25 µM and 6.7 µM in assay [2]; 3.43 µM and 3.25 µM in assay [4]; 3.74 µM in assay [5]; 2.83 µM and 5.82 µM in assay [6].
